This note sets out measurements from ChEMBL document CHEMBL1130506, “Inhibition of the her2 tyrosine kinase and characterization of a hydrophobic site near the nucleotide binding domain” (Bioorg Med Chem Lett, 1997).

In the assay the target is Receptor tyrosine-protein kinase erbB-2 (Homo sapiens, UniProt P04626). Nature of the assay: Inhibition of autophosphorylation of HER-2 expressed in NIH3T3 cell lines. Type of assay: cell-based.
Sequence of Receptor tyrosine-protein kinase erbB-2 (P04626 whole entry): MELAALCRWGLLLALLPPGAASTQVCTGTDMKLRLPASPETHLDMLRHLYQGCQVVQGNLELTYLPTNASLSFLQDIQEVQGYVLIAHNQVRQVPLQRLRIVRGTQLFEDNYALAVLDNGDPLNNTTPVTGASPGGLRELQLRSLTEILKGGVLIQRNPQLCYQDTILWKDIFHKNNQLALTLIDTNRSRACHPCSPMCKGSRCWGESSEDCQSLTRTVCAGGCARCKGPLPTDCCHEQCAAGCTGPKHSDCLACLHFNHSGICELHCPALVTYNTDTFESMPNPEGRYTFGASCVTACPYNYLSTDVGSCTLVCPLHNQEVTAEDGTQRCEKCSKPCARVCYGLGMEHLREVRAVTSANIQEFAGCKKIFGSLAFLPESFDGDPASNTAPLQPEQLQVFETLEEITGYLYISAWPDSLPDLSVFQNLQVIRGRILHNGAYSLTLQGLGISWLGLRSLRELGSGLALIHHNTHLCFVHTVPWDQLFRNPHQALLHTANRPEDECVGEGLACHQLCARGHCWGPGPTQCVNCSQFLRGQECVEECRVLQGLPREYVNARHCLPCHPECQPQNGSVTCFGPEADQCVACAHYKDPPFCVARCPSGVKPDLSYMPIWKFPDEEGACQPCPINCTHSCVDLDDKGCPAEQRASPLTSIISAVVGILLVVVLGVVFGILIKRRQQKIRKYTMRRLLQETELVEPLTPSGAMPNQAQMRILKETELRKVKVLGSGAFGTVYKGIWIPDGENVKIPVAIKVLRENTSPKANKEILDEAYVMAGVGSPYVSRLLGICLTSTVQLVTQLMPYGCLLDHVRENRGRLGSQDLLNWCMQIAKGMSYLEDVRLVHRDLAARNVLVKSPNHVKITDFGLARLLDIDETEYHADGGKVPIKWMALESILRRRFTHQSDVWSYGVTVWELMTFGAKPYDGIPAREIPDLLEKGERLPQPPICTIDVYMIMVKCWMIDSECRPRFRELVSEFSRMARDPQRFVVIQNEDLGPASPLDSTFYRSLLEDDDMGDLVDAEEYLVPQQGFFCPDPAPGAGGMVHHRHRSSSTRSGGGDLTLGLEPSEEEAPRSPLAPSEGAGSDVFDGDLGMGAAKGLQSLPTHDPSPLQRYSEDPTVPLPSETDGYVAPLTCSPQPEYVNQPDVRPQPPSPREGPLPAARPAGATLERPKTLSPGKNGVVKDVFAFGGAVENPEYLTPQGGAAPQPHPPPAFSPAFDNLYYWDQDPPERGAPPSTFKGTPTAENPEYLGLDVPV

As to `O=C(CCCC(=O)Oc1ccc(/C=C/[N+](=O)[O-])cc1)Oc1ccccc1`, half-maximal inhibition (IC50) was put at 4.4 µM. That is a single-digit micromolar value.
Regarding `CC(C)O[C@@H]1[C@H](OC(C)C)[C@@H](COC(=O)CCCC(=O)Oc2ccc(/C=C/[N+](=O)[O-])cc2)O[C@H]1n1cnc2c(N)ncnc21`, the midpoint of inhibition, the IC50, lay at 4.5 µM.
To `COc1ccc(OC(=O)CCCC(=O)Oc2ccc(/C=C/[N+](=O)[O-])cc2)cc1` belongs 6.6 µM.
Take `O=C(CCCC(=O)Oc1ccc(/C=C/[N+](=O)[O-])cc1)OCc1ccco1`: the IC50 (commonly the concentration at which inhibition is half-maximal) amounted to 3.8 µM. This IC50 is about 1.7-fold lower than that of the compound before.
